Reference: patent publication US20070105085A1 (Scripps Research, published 2007)
Entries after “also recorded” stand apart in the source; their conditions may differ.

Columns and labels:
MsbA [1] = biological target: T1, MsbA (Salmonella typhimurium, UniProt P63359); test: ATPase activity of detergent solubilized MsbA, linked enzyme assay; type: biochemical
T1 construct: 23-residue pET19b fusion leader with deca-histidine tag (N); made in house; host or cells: E. coli BL21 (DE3)
Method: ATPase Activity. ATPase activity was measured using an ATP-regenerating system described by Vogel and Steinhart, and modified by Urbatsch et al. Briefly, 1 μg of MsbA was added to 100 μl of Linked Enzyme (LE) buffer at 37° C. containing 10 mM ATP, 12 mM MgCl2, 6 mM phosphoenolpyruvate (PEP), 1 mM NADH, 10 units of lactate dehydrogenase (LDH), 10 units of pyruvate kinase (PK), and 50 mM Tris-HCl, pH 7.5. ATP hydrolysis was measured as the decrease in absorbance of NADH at 340 nm using a DXT880 multiplate spectrofluorimeter (Beckman-Coulter). Activity of MsbA in the presence of either E. coli polar lipids (10 μg/ml) or a non-ABC, ATPase inhibitor cocktail (1 mM EGTA, 1 mM NaN3, 0.2 mM ouabain) was measured (FIGS. 28-30). Each data point is the average of 5 independent measurements with standard error bars shown.

MsbA [2] = biological target: MsbA (Escherichia coli, UniProt P60752); conditions: cited from earlier work
MsbA (Escherichia coli, UniProt P60752), sequence (P60752 whole entry, species assumed): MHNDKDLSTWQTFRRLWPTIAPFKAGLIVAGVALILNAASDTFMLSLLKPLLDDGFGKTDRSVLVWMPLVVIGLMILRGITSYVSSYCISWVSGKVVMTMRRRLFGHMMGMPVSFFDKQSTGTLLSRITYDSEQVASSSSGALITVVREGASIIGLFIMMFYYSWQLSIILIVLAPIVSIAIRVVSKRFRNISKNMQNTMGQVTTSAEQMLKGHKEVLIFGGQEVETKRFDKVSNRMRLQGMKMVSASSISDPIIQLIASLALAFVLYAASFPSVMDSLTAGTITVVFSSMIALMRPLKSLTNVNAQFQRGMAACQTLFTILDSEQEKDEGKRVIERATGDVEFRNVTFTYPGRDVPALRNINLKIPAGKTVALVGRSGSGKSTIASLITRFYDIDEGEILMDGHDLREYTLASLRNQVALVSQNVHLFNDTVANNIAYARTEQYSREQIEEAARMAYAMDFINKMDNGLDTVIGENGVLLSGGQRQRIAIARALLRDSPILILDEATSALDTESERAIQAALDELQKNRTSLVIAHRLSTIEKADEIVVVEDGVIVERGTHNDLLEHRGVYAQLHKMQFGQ

[3] = test system: ΔacrAB E. coli cells overexpressing MsbA; test: Doxorubicin retention in ΔacrAB E. coli cells overexpressing MsbA; type: cell-based; conditions: 0-100 μM PSC; change of fluorescence at 400 sec versus 0 sec; P<0.05
Method: Doxorubicin Retention. A pET 15b vector containing the msbA gene from Salmonella typhimurium LT2 was transformed into an E. coli strain deficient in the multiple-drug efflux pump AcrAB (ECΔacrAB). Single colony cultures were grown to optical density (OD600 nm) of 0.6 in the presence of 1 mM IPTG to induce overexpression of MsbA, harvested and washed three times with 100 mM potassium phosphate buffer (pH 7.5) containing 5 mM MgSO4 and concentrated to an OD600 of 20. Cellular accumulation of doxorubicin was accomplished by incubation of cells with 11.5 μM doxorubicin and 40 μM carbonyl cyanide m-chlorophenylhydrazone (CCCP) while shaking for 1 hour at 37° C. The cells were then washed three times and incubated for 15 minutes at 37° C. with 40 μM CCCP and 0, 1, 10, 25, 50 or 100 μM PSC. Efflux was initiated by addition of 25 mM glucose and fluorescence in the cell suspensions was monitored at 16-second time intervals with a DXT880 multiplate spectrofluorimeter (Beckman-Coulter) with excitation at 485 nm and emission at 595 nm for 900 seconds. […] Cellular doxorubicin retention was measured as a change of fluoresence at time=400 sec versus time=0 sec. […] Results are the average of 3 experiments, with 3-8 measurements per experiment. Statistical significance was assigned with the two-way analysis of variance (ANOVA). A P<0.05 is considered significant.

Wild type E. coli cells = test: Doxorubicin retention in wild type E. coli cells; type: cell-based; conditions: 50 μM PSC
P-gp = conditions: human and murine MDR cell lines; cited from earlier work
[4] = biological target: MsbA from Salmonella typhimurium (detergent solubilized, purified) (Salmonella typhimurium) (UniProt P63359); test: cell-based or functional assay
[5] = biological target: the molecule itself; test: X-ray crystal structure of MsbA.ADP.Vi.Ra LPS, 4.2 Å

## COc1cccc2c1C(=O)c1c(O)c3c(c(O)c1C2=O)C[C@@](O)(C(=O)CO)C[C@@H]3O[C@H]1C[C@H](N)[C@H](O)[C@H](C)O1 [Doxorubicin, doxorubicin]
MsbA [1]
  effect on ATPase activity: stimulates ATPase activity in a dose dependent manner
MsbA [1]; dose dependent stimulation
  concentration of maximum stimulation of ATPase activity: 100 µM

## CCCCCCCCCCCCCC(=O)O[C@H](CCCCCCCCCCC)CC(=O)O[C@@H]1[C@@H](NC(=O)C[C@@H](CCCCCCCCCCC)OC(=O)CCCCCCCCCCC)[C@H](OC[C@H]2O[C@H](OP(=O)(O)O)[C@H](NC(=O)C[C@H](O)CCCCCCCCCCC)[C@@H](OC(=O)C[C@H](O)CCCCCCCCCCC)[C@@H]2O)O[C@H](CO[C@]2(C(=O)O)C[C@@H](O[C@]3(C(=O)O)C[C@@H](O)[C@@H](O)[C@@H]([C@H](O)CO)O3)[C@@H](O)[C@@H]([C@H](O)CO)O2)[C@H]1OP(=O)(O)O [Kdo2-lipid A]
MsbA [2]; compared with Ra LPS
  stimulatory effect on ATP activity of MsbA: larger stimulatory effect

## C/C=C/C[C@@H](C)C(=O)[C@H]1C(=O)N[C@@H](C(C)C)C(=O)N(C)CC(=O)N(C)[C@@H](CC(C)C)C(=O)N[C@@H](C(C)C)C(=O)N(C)[C@@H](CC(C)C)C(=O)N[C@@H](C)C(=O)N[C@H](C)C(=O)N(C)[C@@H](CC(C)C)C(=O)N(C)[C@@H](CC(C)C)C(=O)N(C)[C@@H](C(C)C)C(=O)N1C [PSC, [3′-Desoxy-3′-oxo-MeBmt]^1-[Val]^2-Ciclosporin]
MsbA [1]; PSC at concentrations of 50-250 μM, basal activity 1.25 μmol ATP/min/mg of protein
  stimulation of ATPase over basal activity: up to 55%
MsbA [1]; concentrations less than 50 μM
  effect on MsbA ATPase activity: modulated
MsbA [1]; doxorubicin stimulated
  effect on doxorubicin stimulated ATPase activity of MsbA: modulates doxorubicin stimulated ATPase activity
[3]
  doxorubicin retention: alters the retention of doxorubicin; also recorded: mediates doxorubicin retention
Wild type E. coli cells
  increase in doxorubicin retention: less than 10%
P-gp
  inhibition of P-gp mediated drug accumulation: potent inhibitor

## PSC-833, [3'-Desoxy-3'-oxo-MeBmt]1-[Val]2-Ciclosporin (peptide)
[4]
  ATPase activity of detergent solubilized MsbA (linked enzyme assay) (% over basal activity): < 55

## lipid A
MsbA [2]; studies in vitro
  stimulation of MsbA ATPase: specifically stimulated

B1: MsbA from Salmonella typhimurium (detergent solubilized, purified) (other)
chain: MHNDKDLSTWQTFRRLWPTIAPFKAGLIVAGIALILNAASDTFMLSLLKPLLDDGFGKTDRSVLLWMPLVVIGLMILRGITSYISSYCISWVSGKVVMTMRRRLFGHMMGMPVAFFDKQSTGTLLSRITYDSEQVASSSSGALITVVREGASIIGLFIMMFYYSWQLSIILVVLAPIVSIAIRVVSKRFRSISKNMQNTMGQVTTSAEQMLKGHKEVLIFGGQEVETKRFDKVSNKMRLQGMKMVSASSISDPIIQLIASLALAFVLYAASFPSVMDSLTAGTITVVFSSMIALMRPLKSLTNVNAQFQRGMAACQTLFAILDSEQEKDEGKRVIDRATGDLEFRNVTFTYPGREVPALRNINLKIPAGKTVALVGRSGSGKSTIASLITRFYDIDEGHILMDGHDLREYTLASLRNQVALVSQNVHLFNDTVANNIAYARTEEYSREQIEEAARMAYAMDFINKMDNGLDTIIGENGVLLSGGQRQRIAIARALLRDSPILILDEATSALDTESERAIQAALDELQKNRTSLVIAHRLSTIEQADEIVVVEDGIIVERGTHSELLAQHGVYAQLHKMQFGQ
notes: also called ST-MsbA; ABC Transporter MsbA
[5]
  binding result: binds
